Laboratory results taken from PubChem BioAssay AID248 (DTP/NCI, 2004).
Where “and” joins values, the source holds several entries; their conditions need not be identical. Equal entries are not always repeated. Toxic doses and inconclusive results are not listed. Rule as the data show it: active = T/C of 150% or more; inactive = T/C below 125%.

System: L1210 leukemia ip in BDF1 mice, survival T/C
Test: NCI In Vivo Anticancer Drug Screen. Data for tumor model L1210 Leukemia (intraperitoneal) in B6D2F1 (BDF1) mice
Settings: endpoint: mean survival time, higher = longer survival
In short: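 Each compound was tested against a transplantable tumor grown in mice. The endpoint was survival, with treated animals benchmarked against vehicle controls as a simple ratio.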

[1] = dose: 25.0 mg/kg/injection, schedule: Q04DX003 (ip), vehicle: saline
[2] = dose: 50.0 mg/kg/injection, schedule: Q01DX009 (ip), vehicle: saline sonified
[3] = dose: 50.0 mg/kg/injection, schedule: Q04DX003 (ip), vehicle: saline
[4] = dose: 100.0 mg/kg/injection, schedule: Q01DX009 (ip), vehicle: saline sonified
[5] = dose: 100.0 mg/kg/injection, schedule: Q04DX003 (ip), vehicle: saline
[6] = dose: 100.0 mg/kg/injection, schedule: Q04DX003 (ip), vehicle: Klucel (hydroxypropylcellulose) (HPC)
[7] = dose: 25.0 mg/kg/injection, schedule: Q04DX002 (ip), vehicle: saline with Tween-80

Measured: T/C

O=[N+]([O-])c1ccc(O)c(CCl)c1
inactive: dose: 50.0 mg/kg/injection, schedule: Q04DX002 (ip), vehicle: saline with Tween-80 109 % of control | dose: 100.0 mg/kg/injection, schedule: Q04DX002 (ip), vehicle: DMSO 107 % of control | dose: 100.0 mg/kg/injection, schedule: Q04DX002 (ip), vehicle: saline with Tween-80 109 % of control | dose: 200.0 mg/kg/injection, schedule: Q04DX002 (ip), vehicle: DMSO 86 % of control | dose: 200.0 mg/kg/injection, schedule: Q04DX002 (ip), vehicle: saline with Tween-80 98 % of control | dose: 400.0 mg/kg/injection, schedule: Q04DX002 (ip), vehicle: saline with Tween-80 104 % of control

O=C(O)C1C(C(=O)O)C2(Cl)C(Cl)=C(Cl)C1(Cl)C2(Cl)Cl.[Fe] (centres undefined)
inactive: dose: 25.0 mg/kg/injection, schedule: Q01DX009 (ip), vehicle: saline sonified 93 % of control | [1] 94 % of control | dose: 44.0 mg/kg/injection, schedule: Q01DX Z (ip), vehicle: carboxymethylcellulose (CMC) 92 % of control | dose: 50.0 mg/kg/injection, schedule: Q01DX001 (ip), vehicle: saline sonified 104 % of control | [2] 93 % of control | [3] 95 % of control and 86 % of control | dose: 67.0 mg/kg/injection, schedule: Q01DX Z (ip), vehicle: carboxymethylcellulose (CMC) 91 % of control | dose: 100.0 mg/kg/injection, schedule: Q01DX001 (ip), vehicle: saline sonified 102 % of control | [4] 93 % of control | [5] 103 % of control | dose: 200.0 mg/kg/injection, schedule: Q01DX001 (ip), vehicle: saline sonified 98 % of control

CC(c1ccccc1)n1ccnc1CO (centres undefined)
inactive: dose: 50.0 mg/kg/injection, schedule: Q01DX009 (ip), vehicle: Klucel (hydroxypropylcellulose) (HPC) 103 % of control and 112 % of control | dose: 50.0 mg/kg/injection, schedule: Q04DX003 (ip), vehicle: Klucel (hydroxypropylcellulose) (HPC) 98 % of control | dose: 100.0 mg/kg/injection, schedule: Q01DX009 (ip), vehicle: Klucel (hydroxypropylcellulose) (HPC) 102 % of control and 115 % of control | [6] 106 % of control | dose: 200.0 mg/kg/injection, schedule: Q01DX009 (ip), vehicle: Klucel (hydroxypropylcellulose) (HPC) 98 % of control

Cc1cc(CSC2=NCCCN2)c(CSC2=NCCCN2)cc1C
inactive: dose: 6.25 mg/kg/injection, schedule: Q01DX001 (ip), vehicle: saline 96 % of control | dose: 6.25 mg/kg/injection, schedule: Q01DX009 (ip), vehicle: saline 100 % of control and 111 % of control | dose: 6.25 mg/kg/injection, schedule: Q04DX002 (ip), vehicle: saline with Tween-80 94 % of control | dose: 6.25 mg/kg/injection, schedule: Q04DX003 (ip), vehicle: saline 91 % of control | dose: 12.5 mg/kg/injection, schedule: Q01DX001 (ip), vehicle: saline 97 % of control | dose: 12.5 mg/kg/injection, schedule: Q01DX009 (ip), vehicle: saline 102 % of control and 92 % of control | dose: 12.5 mg/kg/injection, schedule: Q04DX002 (ip), vehicle: saline with Tween-80 97 % of control | dose: 12.5 mg/kg/injection, schedule: Q04DX003 (ip), vehicle: saline 90 % of control | dose: 25.0 mg/kg/injection, schedule: Q01DX001 (ip), vehicle: saline 99 % of control and 108 % of control | dose: 25.0 mg/kg/injection, schedule: Q01DX009 (ip), vehicle: saline 96 % of control and 101 % of control | [7] 100 % of control | dose: 25.0 mg/kg/injection, schedule: Q04DX002 (ip), vehicle: saline 87 % of control | [1] 89 % of control | dose: 100.0 mg/kg/injection, schedule: Q01DX001 (ip), vehicle: saline 93 % of control

Nc1nc(-c2ccc([N+](=O)[O-])cc2)cc(=O)[nH]1
inactive: dose: 100.0 mg/kg/injection, schedule: Q01DX001 (ip), vehicle: saline with Tween-80 98 % of control | dose: 200.0 mg/kg/injection, schedule: Q01DX001 (ip), vehicle: saline with Tween-80 93 % of control | dose: 400.0 mg/kg/injection, schedule: Q01DX001 (ip), vehicle: saline with Tween-80 92 % of control

C=CC1COC=C2CN3CCc4cc(OC)c(O)cc4C3CC21 (centres undefined)
inactive: dose: 50.0 mg/kg/injection, schedule: Q01DX009 (ip), vehicle: saline 100 % of control | dose: 100.0 mg/kg/injection, schedule: Q01DX009 (ip), vehicle: saline 104 % of control | [5] 100 % of control | dose: 200.0 mg/kg/injection, schedule: Q01DX009 (ip), vehicle: saline 98 % of control | dose: 200.0 mg/kg/injection, schedule: Q04DX003 (ip), vehicle: saline 101 % of control | dose: 400.0 mg/kg/injection, schedule: Q04DX003 (ip), vehicle: saline 97 % of control

CC[N+](C)(CC)CCNC(c1ccc(OC)c(OC)c1)C(Cl)(Cl)Cl (centres undefined)
inactive: dose: 75.0 mg/kg/injection, schedule: Q01DX001 (ip), vehicle: saline 88 % of control

CSc1ccc(OC(=O)Nc2ccccc2C)cc1
inactive: dose: 100.0 mg/kg/injection, schedule: Q04DX002 (ip), vehicle: Klucel (hydroxypropylcellulose) (HPC) 95 % of control | dose: 200.0 mg/kg/injection, schedule: Q04DX002 (ip), vehicle: Klucel (hydroxypropylcellulose) (HPC) 106 % of control | dose: 400.0 mg/kg/injection, schedule: Q04DX002 (ip), vehicle: Klucel (hydroxypropylcellulose) (HPC) 114 % of control

CC(C)(C)Sc1cccnc1
inactive: dose: 100.0 mg/kg/injection, schedule: Q01DX009 (ip), vehicle: saline with Tween-80 94 % of control | dose: 200.0 mg/kg/injection, schedule: Q01DX009 (ip), vehicle: saline with Tween-80 98 % of control

CCCCN(CCCC)CCN(CCCC)CCN(CCCC)CCCC
inactive: [1] 103 % of control | [3] 98 % of control | [5] 98 % of control and 89 % of control

COc1cc2c(cc1I)-c1c(cc(OC)c(OC)c1OC)CC[C@@H]2NC(C)=O
inactive: dose: 17.0 mg/kg/injection, schedule: Q01DX Z (ip), vehicle: carboxymethylcellulose (CMC) 102 % of control | dose: 26.0 mg/kg/injection, schedule: Q01DX Z (ip), vehicle: carboxymethylcellulose (CMC) 108 % of control | dose: 40.0 mg/kg/injection, schedule: Q01DX Z (ip), vehicle: carboxymethylcellulose (CMC) 119 % of control | dose: 49.0 mg/kg/injection, schedule: Q01DX Z (ip), vehicle: carboxymethylcellulose (CMC) 103 % of control | [2] 108 % of control | dose: 60.0 mg/kg/injection, schedule: Q01DX Z (ip), vehicle: carboxymethylcellulose (CMC) 117 % of control | dose: 73.0 mg/kg/injection, schedule: Q01DX Z (ip), vehicle: carboxymethylcellulose (CMC) 103 % of control | dose: 90.0 mg/kg/injection, schedule: Q01DX Z (ip), vehicle: carboxymethylcellulose (CMC) 102 % of control | [4] 106 % of control | [6] 99 % of control | dose: 110.0 mg/kg/injection, schedule: Q01DX Z (ip), vehicle: carboxymethylcellulose (CMC) 103 % of control | dose: 200.0 mg/kg/injection, schedule: Q01DX009 (ip), vehicle: saline sonified 119 % of control | dose: 200.0 mg/kg/injection, schedule: Q04DX003 (ip), vehicle: Klucel (hydroxypropylcellulose) (HPC) 99 % of control

Oc1ccccc1C=Nc1ccccc1N=Cc1ccccc1O
inactive: dose: 100.0 mg/kg/injection, schedule: Q01DX001 (ip), vehicle: Klucel (hydroxypropylcellulose) (HPC) 102 % of control | dose: 200.0 mg/kg/injection, schedule: Q01DX001 (ip), vehicle: Klucel (hydroxypropylcellulose) (HPC) 103 % of control | dose: 400.0 mg/kg/injection, schedule: Q01DX001 (ip), vehicle: Klucel (hydroxypropylcellulose) (HPC) 96 % of control

CCCC(CCC)(C(N)=O)c1ccc(OC)cc1
inactive: dose: 100.0 mg/kg/injection, schedule: Q01DX001 (ip), vehicle: carboxymethylcellulose (CMC) 87 % of control | dose: 200.0 mg/kg/injection, schedule: Q01DX001 (ip), vehicle: carboxymethylcellulose (CMC) 98 % of control | dose: 400.0 mg/kg/injection, schedule: Q01DX001 (ip), vehicle: carboxymethylcellulose (CMC) 93 % of control

O=[N+]([O-])c1ccc(-c2ccccc2)c([As](=O)(O)O)c1
inactive: [7] 106 % of control
